For one compound, EC50 results are on record in PMC8125603, “Species-Specific Regulation of TRPM2 by PI(4,5)P2 via the Membrane Interfacial Cavity” (International Journal of Molecular Sciences, 2021).

In one experiment the target is T1, nvTRPM2 (Nematostella vectensis, UniProt A7T1N0).
T1 construct: gene TRPM2; full-length wild-type cDNA in modified pIRES-hrGFP-2a, transient in HEK-293 cells; homotetramer; inside-out patches (C-terminal 3xHA tag only for surface expression tests)
Briefly: inside-out patch clamp, HEK-293 cells, -60 mV, dose-response of current activation. The class given is biochemical. (The patch-clamp technique gives a direct electrical read-out from membranes.)

The next experiment has as its target T2, hsTRPM2 (Homo sapiens, UniProt O94759).
T2 construct: gene TRPM2; full-length wild-type cDNA in modified pIRES-hrGFP-2a, transient in HEK-293 cells; homotetramer; inside-out patches (C-terminal 3xHA tag only for surface expression tests)
Described as above. Format: biochemical.

T2 sequence (O94759 whole entry): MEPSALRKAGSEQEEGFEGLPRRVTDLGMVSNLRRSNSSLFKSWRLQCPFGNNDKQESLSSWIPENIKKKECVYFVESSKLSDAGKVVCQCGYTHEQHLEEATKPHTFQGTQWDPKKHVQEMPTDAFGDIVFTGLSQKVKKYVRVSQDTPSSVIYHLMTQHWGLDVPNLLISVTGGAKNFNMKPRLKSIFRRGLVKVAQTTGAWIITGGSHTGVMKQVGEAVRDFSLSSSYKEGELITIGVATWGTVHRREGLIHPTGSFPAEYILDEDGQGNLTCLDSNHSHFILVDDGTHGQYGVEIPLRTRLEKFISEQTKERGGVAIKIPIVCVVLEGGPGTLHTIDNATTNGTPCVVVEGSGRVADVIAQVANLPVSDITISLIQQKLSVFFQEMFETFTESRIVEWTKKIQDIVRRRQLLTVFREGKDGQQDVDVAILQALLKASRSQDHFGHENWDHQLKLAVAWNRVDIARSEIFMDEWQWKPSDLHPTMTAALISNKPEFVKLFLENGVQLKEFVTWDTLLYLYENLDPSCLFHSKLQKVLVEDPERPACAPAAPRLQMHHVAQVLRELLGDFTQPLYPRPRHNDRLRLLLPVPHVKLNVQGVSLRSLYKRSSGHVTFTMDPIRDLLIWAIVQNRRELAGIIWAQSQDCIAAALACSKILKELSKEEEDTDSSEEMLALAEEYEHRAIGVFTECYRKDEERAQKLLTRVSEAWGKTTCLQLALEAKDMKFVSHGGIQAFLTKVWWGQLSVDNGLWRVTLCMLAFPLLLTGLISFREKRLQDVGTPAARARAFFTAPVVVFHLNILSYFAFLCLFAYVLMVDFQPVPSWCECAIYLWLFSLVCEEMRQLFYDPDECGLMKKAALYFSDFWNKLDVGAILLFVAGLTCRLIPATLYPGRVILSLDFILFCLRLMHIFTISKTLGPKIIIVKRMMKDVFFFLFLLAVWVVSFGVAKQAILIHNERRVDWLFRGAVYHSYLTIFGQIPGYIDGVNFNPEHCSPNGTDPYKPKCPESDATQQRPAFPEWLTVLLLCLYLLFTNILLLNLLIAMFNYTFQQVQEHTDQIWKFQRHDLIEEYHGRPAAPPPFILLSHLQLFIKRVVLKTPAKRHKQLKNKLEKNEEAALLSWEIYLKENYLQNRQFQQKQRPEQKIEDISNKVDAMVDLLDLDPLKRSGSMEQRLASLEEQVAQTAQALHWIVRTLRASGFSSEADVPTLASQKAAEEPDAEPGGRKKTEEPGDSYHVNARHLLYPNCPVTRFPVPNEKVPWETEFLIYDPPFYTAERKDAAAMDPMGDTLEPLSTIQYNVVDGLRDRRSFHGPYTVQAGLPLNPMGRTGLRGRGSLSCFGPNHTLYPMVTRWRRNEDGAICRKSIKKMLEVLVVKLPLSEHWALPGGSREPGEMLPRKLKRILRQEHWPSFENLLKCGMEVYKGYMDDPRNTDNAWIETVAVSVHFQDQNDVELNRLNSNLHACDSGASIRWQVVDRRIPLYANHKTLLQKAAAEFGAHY
T1 sequence (A7T1N0 whole entry): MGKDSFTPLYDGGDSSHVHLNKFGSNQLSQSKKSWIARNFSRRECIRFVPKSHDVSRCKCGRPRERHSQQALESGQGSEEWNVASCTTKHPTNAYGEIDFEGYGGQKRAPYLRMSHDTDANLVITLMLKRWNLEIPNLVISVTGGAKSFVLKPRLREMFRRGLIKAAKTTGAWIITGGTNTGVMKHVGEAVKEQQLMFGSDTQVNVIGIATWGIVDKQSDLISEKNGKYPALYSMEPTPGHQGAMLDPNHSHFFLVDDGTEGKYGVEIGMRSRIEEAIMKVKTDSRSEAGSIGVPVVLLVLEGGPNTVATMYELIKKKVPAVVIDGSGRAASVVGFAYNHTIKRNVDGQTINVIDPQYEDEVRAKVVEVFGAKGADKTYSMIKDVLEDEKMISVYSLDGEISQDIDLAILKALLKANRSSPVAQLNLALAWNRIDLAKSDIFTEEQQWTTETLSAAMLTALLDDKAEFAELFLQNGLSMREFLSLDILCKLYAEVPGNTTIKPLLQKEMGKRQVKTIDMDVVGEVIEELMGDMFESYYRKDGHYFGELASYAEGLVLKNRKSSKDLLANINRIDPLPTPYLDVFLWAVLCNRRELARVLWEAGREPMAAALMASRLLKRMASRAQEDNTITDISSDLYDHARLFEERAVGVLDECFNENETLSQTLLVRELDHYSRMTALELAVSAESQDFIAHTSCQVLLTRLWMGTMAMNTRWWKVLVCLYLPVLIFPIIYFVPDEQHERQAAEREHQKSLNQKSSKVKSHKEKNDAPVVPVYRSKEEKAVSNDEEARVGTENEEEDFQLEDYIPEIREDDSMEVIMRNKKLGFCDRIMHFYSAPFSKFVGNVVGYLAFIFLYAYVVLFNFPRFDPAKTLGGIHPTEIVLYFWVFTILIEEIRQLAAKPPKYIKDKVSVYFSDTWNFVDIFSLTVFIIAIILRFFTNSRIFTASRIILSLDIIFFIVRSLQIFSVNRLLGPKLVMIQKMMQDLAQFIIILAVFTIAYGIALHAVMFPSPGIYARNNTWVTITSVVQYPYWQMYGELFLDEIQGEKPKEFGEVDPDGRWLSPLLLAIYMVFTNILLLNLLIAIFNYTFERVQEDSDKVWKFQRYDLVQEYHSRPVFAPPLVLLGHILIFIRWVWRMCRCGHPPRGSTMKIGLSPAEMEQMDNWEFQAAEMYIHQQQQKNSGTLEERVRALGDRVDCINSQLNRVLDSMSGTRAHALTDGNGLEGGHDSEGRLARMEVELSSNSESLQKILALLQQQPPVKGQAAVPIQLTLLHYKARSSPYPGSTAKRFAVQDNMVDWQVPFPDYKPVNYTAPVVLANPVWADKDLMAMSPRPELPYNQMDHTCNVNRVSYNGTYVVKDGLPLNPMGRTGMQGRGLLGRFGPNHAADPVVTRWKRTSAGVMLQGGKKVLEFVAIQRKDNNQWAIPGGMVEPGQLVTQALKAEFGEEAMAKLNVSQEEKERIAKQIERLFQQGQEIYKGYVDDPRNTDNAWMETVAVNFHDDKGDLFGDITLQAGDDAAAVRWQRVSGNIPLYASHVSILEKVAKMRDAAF

In the case of `CCCCCCCC(=O)OC[C@H](COP(=O)(O)O[C@@H]1[C@H](O)[C@H](O)[C@@H](OP(=O)(O)O)[C@H](OP(=O)(O)O)[C@H]1O)OC(=O)CCCCCCC` [PIP2], the results for the EC50 at nvTRPM2 and at hsTRPM2 were 2.1 ± 0.2 µM and 11.9 ± 1.1 µM, respectively.

What is called EC50 is the midpoint of the concentration-response curve. A low value points to higher potency in that assay.
